The supplement of paper PMC10307832

Columns and labels:
Assay in all cases: relative viability (nuclei count vs DMSO), 5 days (fraction); higher = more cells survive
Carfilzomib + Luminespib = compound: CC(C)C[C@H](NC(=O)[C@H](CCc1ccccc1)NC(=O)CN1CCOCC1)C(=O)N[C@@H](Cc1ccccc1)C(=O)N[C@@H](CC(C)C)C(=O)[C@@]1(C)CO1 [Carfilzomib] + CCNC(=O)c1noc(-c2cc(C(C)C)c(O)cc2O)c1-c1ccc(CN2CCOCC2)cc1 [Luminespib] (partner 0.01 µM)
In short: (§1)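 Five library-drug doses in √10 steps were combined with a fixed anchor-drug dose, or a single drug was given alone, by pin tool to lung cancer cell lines in 1536-well plates the day after seeding. Nuclei were stained and counted after 5 days. Relative viability is the nuclei count in treated wells over that in vehicle wells, taken as the median of duplicate plates.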

Carfilzomib + Dasatinib = compound: CC(C)C[C@H](NC(=O)[C@H](CCc1ccccc1)NC(=O)CN1CCOCC1)C(=O)N[C@@H](Cc1ccccc1)C(=O)N[C@@H](CC(C)C)C(=O)[C@@]1(C)CO1 [Carfilzomib] + Cc1nc(Nc2ncc(C(=O)Nc3c(C)cccc3Cl)s2)cc(N2CCN(CCO)CC2)n1 [Dasatinib] (partner 0.075 µM)
In short: as §1

Olaparib + Foretinib = compound: O=C(c1cc(Cc2n[nH]c(=O)c3ccccc23)ccc1F)N1CCN(C(=O)C2CC2)CC1 [Olaparib] + COc1cc2c(Oc3ccc(NC(=O)C4(C(=O)Nc5ccc(F)cc5)CC4)cc3F)ccnc2cc1OCCCN1CCOCC1 [Foretinib] (partner 0.25 µM)
In short: as §1

Olaparib + Tozasertib = compound: O=C(c1cc(Cc2n[nH]c(=O)c3ccccc23)ccc1F)N1CCN(C(=O)C2CC2)CC1 [Olaparib] + Cc1cc(Nc2cc(N3CCN(C)CC3)nc(Sc3ccc(NC(=O)C4CC4)cc3)n2)n[nH]1 [Tozasertib] (partner 0.1 µM)
In short: as §1

Row | Cell Line | relative viability (Carfilzomib + Luminespib; first compound 0.001 µM) | relative viability (Carfilzomib + Luminespib; first compound 0.003162 µM) | relative viability (Carfilzomib + Luminespib; first compound 0.01 µM) | relative viability (Carfilzomib + Luminespib; first compound 0.03162 µM) | relative viability (Carfilzomib + Luminespib; first compound 0.1 µM) | relative viability (Carfilzomib + Dasatinib; first compound 0.001 µM) | relative viability (Carfilzomib + Dasatinib; first compound 0.003162 µM) | relative viability (Carfilzomib + Dasatinib; first compound 0.01 µM) | relative viability (Carfilzomib + Dasatinib; first compound 0.03162 µM) | relative viability (Carfilzomib + Dasatinib; first compound 0.1 µM) | relative viability (Olaparib + Foretinib; first compound 0.08 µM) | relative viability (Olaparib + Foretinib; first compound 0.253 µM) | relative viability (Olaparib + Foretinib; first compound 2.53 µM) | relative viability (Olaparib + Foretinib; first compound 8 µM) | relative viability (Olaparib + Tozasertib; first compound 0.08 µM) | relative viability (Olaparib + Tozasertib; first compound 0.253 µM) | relative viability (Olaparib + Tozasertib; first compound 2.53 µM) | relative viability (Olaparib + Tozasertib; first compound 8 µM)
1 | NCI-H1623 | 0.466 | 0.527 | 0.563 | 0.59 | 0.345 | 0.509 | 0.571 | 0.599 | 0.271 | 0.642 | 0.954 | 0.88 | 0.814 | 0.647 | 0.474 | 0.446 | 0.493 | 0.413
2 | NCI-H1650 | 0.174 | 0.199 | 0.213 | 0.175 | 0.181 | 0.282 | 0.304 | 0.207 | 0.165 | 0.172 | 1.2 | 0.996 | 1.15 | 1.35 | 0.475 | 0.391 | 0.372 | 0.361
3 | NCI-H1651 | 0.766 | 0.913 | 0.916 | 0.2 | 0.12 | 0.361 | 0.295 | 0.266 | 0.104 | 0.0779 | 0.828 | 0.681 | 0.544 | 0.301 | 0.677 | 0.638 | 0.439 | 0.257
4 | NCI-H1666 | 0.993 | 1.06 | 1.11 | 0.863 | 0.358 | 0.812 | 0.878 | 0.817 | 0.568 | 0.352 | 0.936 | 0.867 | 0.793 | 0.823 | 0.619 | 0.733 | 0.583 | 0.515
5 | NCI-H1734 | 0.188 | 0.177 | 0.235 | 0.184 | 0.107 | 0.462 | 0.503 | 0.487 | 0.2 | 0.148 | 0.885 | 0.782 | 0.851 | 0.637 | 0.25 | 0.249 | 0.251 | 0.251
6 | NCI-H1755 | 0.54 | 0.367 | 0.481 | 0.288 | 0.453 | 0.428 | 0.45 | 0.479 | 0.365 | 0.263 | 0.922 | 0.898 | 0.868 | 0.787 | 0.611 | 0.547 | 0.548 | 0.531
7 | NCI-H1915 | 0.698 | 0.781 | 0.766 | 0.375 | 0.0837 | 0.271 | 0.344 | 0.299 | 0.174 | 0.102 | 1.06 | 1.02 | 0.717 | 0.604 | 0.447 | 0.372 | 0.368 | 0.274
8 | NCI-H1944 | 0.698 | 0.774 | 0.707 | 0.732 | 0.205 | 0.214 | 0.233 | 0.186 | 0.203 | 0.135 | 0.704 | 0.784 | 0.648 | 0.603 | 0.217 | 0.198 | 0.228 | 0.231
